Measured values reported in patent publication US20130109693A1, “DERIVATIVES OF PYRIDO [3,2-D] PYRIMIDINE, METHODS FOR PREPARATION THEREOF AND THERAPEUTIC USES THEREOF” (UNIVERSITE D'ORLEANS, priority 2010, published 2013).

What was measured:
Huh7 = assay: Cytotoxicity on human cells, Huh7 (liver); type: cell-based; conditions: Huh-7, human cells, exposed 24 h and 48 h, 0.1 to 25 μM
Protocol: (§1) […] Dosages on Human cells (Huh7, Caco, MDA-MB 231, HCT 116, PC3, NCl, Fibroblast)
(§2) Cytotoxicity: This method is based on an automated imaging analysis. 4.10^3 cells were cultivated on 96-well plates and thus left for 24 hours so that they may bind, be distributed and proliferate.
(§3) These cells were then exposed for 24 h and 48 h to increasing concentrations of the compounds of the invention, from 0.1 to 25 μM in a final volume of 80 μL of culture medium. The cells are then set with a 4% paraformaldehyde solution and the nuclei are colored with Hoechst 3342 and counted according to automated imaging quantification.
(§4) All the cell lines were cultivated in a DMEM or RPMI (Invitrogen) medium. All these media were completed with antibiotics (penicillin-streptomycin)(Lonza) and 10% by volume of foetal calf serum (Invitrogen). The cells were cultivated at 37° C. with 5% of CO2. The treatments with the molecules to be tested were carried out with increasing concentrations. […] The control experiments were also conducted by using suitable dilutions of DMSO (maximum 1% DMSO). Cell viability was determined by measuring the reduction of MTS as described in the article of Ribas J, Boix J. (2004). Cell differentiation caspase inhibition and macromolecular synthesis blockage but not BCL-2 or BCL-XL proteins protect SH-SY5Y cells from apoptosis triggered by two CDK inhibitory drugs. Exp. Cell Res., 295: 9-24.

Caco = assay: Cytotoxicity on human cells, Caco (colon); type: cell-based; conditions: exposed 24 h and 48 h, 0.1 to 25 μM
Protocol: as §1, §2, §3, §4

MDA-MB 231 = assay: Cytotoxicity on human cells, MDA-MB 231 (breast); type: cell-based; conditions: MDA-MB-231, human cells, exposed 24 h and 48 h, 0.1 to 25 μM
Protocol: as §1, §2, §3, §4

HCT 116 = assay: Cytotoxicity on human cells, HCT 116 (colon); type: cell-based; conditions: exposed 24 h and 48 h, 0.1 to 25 μM
Protocol: as §1, §2, §3, §4

PC3 = assay: Cytotoxicity on human cells, PC3 (prostate); type: cell-based; conditions: PC-3, human cells, exposed 24 h and 48 h, 0.1 to 25 μM
Protocol: as §1, §2, §3, §4

NCI = assay: Cytotoxicity on human cells, NCI (lung); type: cell-based; conditions: exposed 24 h and 48 h, 0.1 to 25 μM
Protocol: as §1, §2, §3, §4

fibroblast = assay: Cytotoxicity on human cells, fibroblast; type: cell-based; conditions: exposed 24 h and 48 h, 0.1 to 25 μM
Protocol: as §1, §2, §3, §4

DYRK1A = DYRK1A (Homo sapiens, UniProt Q13627); assay: DYRK1A kinase inhibition (Woodtide substrate, buffer A); type: biochemical; conditions: 15 μM ATP, 30° C., recombinant GST fusion; read-out: IC50 Kinases DYRK1A
Protocol: (§5) The activities for inhibiting protein kinases of the compounds of the invention are tested according to the following general procedure:
(§6) Buffer A: 10 mM MgCl2, 1 mM EGTA, 1 mM DTT, 25 mM Tris-HCl pH 7.5 and 50 μg heparin/mL.
(§7) The kinase activities are dosed in buffers A or C, at 30° C., at a final concentration of ATP of 15 μM. The values of the blanks were subtracted and the activities are expressed as a % of the maximum activity, i.e. in the absence of inhibitors. The controls were carried out with suitable dilutions of DMSO.

CDK5 = target: T1, CDK5 (Homo sapiens, UniProt Q00535); assay: CDK5 kinase inhibition (histone H1, [γ-33P] ATP, buffer C); type: biochemical; conditions: 15 μM ATP, 30° C., recombinant; read-out: IC50 Kinases CDK5
T1 construct: made in house
T1 sequence (Q00535 whole entry): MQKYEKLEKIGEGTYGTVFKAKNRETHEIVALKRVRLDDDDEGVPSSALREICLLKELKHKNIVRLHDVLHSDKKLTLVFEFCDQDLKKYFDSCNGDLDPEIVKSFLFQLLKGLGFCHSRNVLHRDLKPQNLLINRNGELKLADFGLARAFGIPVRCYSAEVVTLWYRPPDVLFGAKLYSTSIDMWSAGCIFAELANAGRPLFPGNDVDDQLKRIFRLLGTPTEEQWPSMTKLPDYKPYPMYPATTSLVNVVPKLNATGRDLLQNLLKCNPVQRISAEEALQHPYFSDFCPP
T1 sequence (Q15078 99-307 partner limits assumed): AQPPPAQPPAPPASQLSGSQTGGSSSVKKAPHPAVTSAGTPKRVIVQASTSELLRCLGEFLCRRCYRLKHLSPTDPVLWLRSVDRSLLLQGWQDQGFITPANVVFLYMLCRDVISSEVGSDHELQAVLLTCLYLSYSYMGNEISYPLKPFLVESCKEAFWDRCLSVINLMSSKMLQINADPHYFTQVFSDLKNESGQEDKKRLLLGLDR
Protocol: as §5
Buffer C: 60 mM β-glycerophosphate, 15 mM p-nitrophenyl-phosphate, 25 mM Mops (pH 7.2), 5 mM EGTA, 15 mM MgCl2, 1 mM DTT, 1 mM of sodium vanadate
as §7
CDK5 (humane, recombinant) was prepared as described earlier (Leclerc, S.; Garnier, M.; Hoessel, R.; Marko, D.; Bibb, J. A.; Snyder, G. L.; Greengard, P.; Biernat, J.; Mandelkow, E.-M.; Eisenbrand, G.; Meijer, L. Indirubins inhibit glycogen synthase kinase-3β and CDK5/p25, two kinases involved in abnormal tau phosphorylation in Alzheimer's disease—A property common to most CDK inhibitors? J. Biol. Chem. 2001, 276, 251-260; Bach S, Knockaert M, Reinhardt J, Lozach O, Schmitt S, Baratte B et al. (2005). Roscovitine targets, protein kinases and pyridoxal kinase. J. Biol Chem 280: 31208-31219). Its kinase activity was analyzed in the buffer C, with 1 mg of histone H1/mL, in the presence of 15 μM of [γ-^33P] ATP (3,000 Ci/mmol; 10 mCi/mL) in a final volume of 30 μl. After 30 mins of incubation at 30° C., 25 μl of supernatant aliquots were deposited on 2.5×3 cm pieces of phosphocellulose Whatman P81 paper, and after 20 seconds, the filters were washed five times (for at least 5 minutes every time) in a solution of 10 mL phosphoric acid/liter of water. The wet filters were counted in the presence of 1 mL of ACS scintillator fluid (Amersham).

GSK-3αβ = GSK-3αβ kinase inhibition (GS-1 substrate, buffer A); type: biochemical; conditions: 15 μM ATP, 30° C., native, pig brain; read-out: IC50 Kinases GSK3
Protocol: as §5, §6, §7
GSK-3αβ (from pig brain, native) was assayed by using a specific substrate of GSK-3 (GS-1: […]pEDEEE)(Sp represents a phosphorylated serine) (Primot, A., Baratte, B., Gompel, M., Borgne, A., Liabeuf, S., Romette, J. L., Costantini, F. and Meijer, L., 2000. Purification of GSK-3 by affinity chromatography on immobilized axin. Protein Expr. & Purif. 20 (3), 394-404). GS-1 was synthesized by Millegen (Labège, France). Its kinase activity was analyzed in the buffer A, with 1 mg of histone H1/mL, in the presence of 15 μM of [γ-^33P] ATP (3,000 Ci/mmol; 10 mCi/mL) in a final volume of 30 μl. After 30 mins of incubation at 30° C., 25 μl of supernatant aliquots were deposited on 2.5×3 cm pieces of phosphocellulose Whatman P81papier, and after 20 seconds, the filters were washed five times (for at least 5 minutes every time) in a solution of 10 mL of phosphoric acid/liter of water. The wet filters were counted in the presence of 1 mL of ACS scintillator fluid (Amersham).

| SMILES | IC50 (Huh7) | IC50 (Caco) | IC50 (MDA-MB 231) | IC50 (HCT 116) | IC50 (PC3) | IC50 (NCI) | IC50 (fibroblast) | IC50 (DYRK1A) | IC50 (CDK5) | IC50 (GSK-3αβ) | melting point |
| --- | --- | --- | --- | --- | --- | --- | --- | --- | --- | --- | --- |
| Oc1ccc(-c2ncc3ncc(-c4ccco4)cc3n2)cc1 [Compound 35, 2-(4-Hydroxyphenyl)-7-(2-furyl)-pyrido[3,2-d]pyrimidine] | 15 µM | > 25 µM | 4 µM | 5 µM | 20 µM | 7 µM | 6 µM | > 10 µM | 1.8 µM | > 10 µM | 261 to 263 °C |
| Oc1cccc(-c2cnc3cnc(-c4cccc(O)c4)nc3c2)c1 [Compound 21, 2,7-Di-(3-hydroxyphenyl)-pyrido[3,2-d]pyrimidine] | > 25 µM | 20 µM | > 25 µM | > 25 µM | 25 µM | > 25 µM | > 25 µM | 3.4 µM | 2.6 µM | > 100 µM | 264 to 265 °C |
| Oc1ccc(Nc2ncc3ncc(Cl)cc3n2)cc1 [Compound 59, 7-Chloro-2-(4-hydroxyphenylamino)-pyrido[3,2-d]pyrimidine] | 12 µM | > 25 µM | 6 µM | 2 µM | 12 µM | 10 µM | 5 µM | > 10 µM | 1.1 µM | > 10 µM | 232 to 234 °C |
| Oc1ccc(Nc2ncc3ncc(-c4cccc(O)c4)cc3n2)cc1 [Compound 61, 2-(4-Hydroxyphenylamino)-7-(3-hydroxyphenyl)-pyrido[3,2-d]pyrimidine] | 10 µM | 12 µM | 9 µM | 12 µM | 7 µM | 4 µM | 2 µM | > 10 µM | 0.71 µM | 4.5 µM | > 268 °C |
| Oc1ccc(-c2ncc3ncc(Nc4nc5ccccc5s4)cc3n2)cc1 [Compound 47, 2-(4-Hydroxyphenyl)-7-(2-benzothiazolamino)-pyrido[3,2-d]pyrimidine] | > 25 µM | > 25 µM | > 25 µM | > 25 µM | > 25 µM | > 25 µM | > 25 µM | > 10 µM | 5.3 µM | > 10 µM | > 268 °C |
| Oc1ccc(-c2ncc3ncc(Cl)cc3n2)cc1 [Compound 17, 7-Chloro-2-(4-hydroxyphenyl)-pyrido[3,2-d]pyrimidine] | > 25 µM | > 25 µM | > 25 µM | > 25 µM | > 25 µM | > 25 µM | > 25 µM | 16 µM | 5.1 µM | > 100 µM | 231 to 232 °C |
| CC(=O)c1ccc(Nc2cnc3c(NCc4ccccc4)nc(NCCO)nc3c2)cc1 [Compound 86, 4-Benzylamino-7-(4-acetylphenylamino)-2-(2-hydroxyethylamino)-pyrido[3,2-d]pyrimidine] | 2 µM | 3 µM | 15 µM | 1 µM | 3 µM | 2 µM | 5 µM | > 10 µM | > 10 µM | > 10 µM | 125 to 126 °C |
| Oc1ccc(-c2ncc3ncc(-c4ccccc4O)cc3n2)cc1 [Compound 24, 2-(4-Hydroxyphenyl)-7-(2-hydroxyphenyl)-pyrido[3,2-d]pyrimidine] | 25 µM | 20 µM | > 25 µM | 20 µM | 20 µM | > 25 µM | > 25 µM | 2.7 µM | 0.09 µM | ≥ 100 µM | 278 to 279 °C |
| Oc1ccc(-c2ncc3ncc(-c4ccsc4)cc3n2)cc1 [Compound 37, 2-(4-Hydroxyphenyl)-7-(3-thiophyl)-pyrido[3,2-d]pyrimidine] | > 25 µM | > 25 µM | > 25 µM | 15 µM | > 25 µM | 10 µM | > 25 µM | > 10 µM | 0.12 µM | > 10 µM | 248 to 250 °C |
